Experiments:
Experiment in all cases: relative viability (nuclei count vs DMSO), 5 days (fraction); higher = more cells survive
Halofuginone + Olaparib = compound: O=C(C[C@H]1NCCC[C@@H]1O)Cn1cnc2cc(Br)c(Cl)cc2c1=O (racemic) [Halofuginone] + O=C(c1cc(Cc2n[nH]c(=O)c3ccccc23)ccc1F)N1CCN(C(=O)C2CC2)CC1 [Olaparib] (partner 8 µM)
Summary of the method: (§1)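 Lung cancer cell lines, seeded in 1536-well plates, were treated the following day by pin tool with a single drug or with five library-drug doses (not always all listed) in √10 steps on top of a fixed anchor-drug dose. Cells were fixed and nuclei stained in one step after 5 days, and nuclei were counted. Relative viability is the nuclei count for treated wells divided by that for vehicle wells, reported as medians of duplicate plates.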

Cediranib + Pictilisib = compound: COc1cc2c(Oc3ccc4[nH]c(C)cc4c3F)ncnc2cc1OCCCN1CCCC1 [Cediranib] + CS(=O)(=O)N1CCN(Cc2cc3nc(-c4cccc5[nH]ncc45)nc(N4CCOCC4)c3s2)CC1 [Pictilisib] (partner 1 µM)
Summary of the method: as §1

Cediranib + Crizotinib = compound: COc1cc2c(Oc3ccc4[nH]c(C)cc4c3F)ncnc2cc1OCCCN1CCCC1 [Cediranib] + C[C@@H](Oc1cc(-c2cnn(C3CCNCC3)c2)cnc1N)c1c(Cl)ccc(F)c1Cl [Crizotinib] (partner 1 µM)
Summary of the method: as §1

[1] = compound: O=C(C[C@H]1NCCC[C@@H]1O)Cn1cnc2cc(Br)c(Cl)cc2c1=O (racemic) [Halofuginone] + C[C@]1(O)C[C@@H](c2nc(-c3ccc4ccc(-c5ccccc5)nc4c3)c3c(N)nccn32)C1 [Linsitinib] (partner 1 µM)
Summary of the method: as §1

Row | Cell Line | relative viability (Halofuginone + Olaparib; first compound 0.001 µM) | relative viability (Halofuginone + Olaparib; first compound 0.003162 µM) | relative viability (Halofuginone + Olaparib; first compound 0.01 µM) | relative viability (Halofuginone + Olaparib; first compound 0.03162 µM) | relative viability (Halofuginone + Olaparib; first compound 0.1 µM) | relative viability (Cediranib + Pictilisib; first compound 0.04 µM) | relative viability (Cediranib + Pictilisib; first compound 0.1265 µM) | relative viability (Cediranib + Pictilisib; first compound 0.4 µM) | relative viability (Cediranib + Pictilisib; first compound 1.265 µM) | relative viability (Cediranib + Pictilisib; first compound 4 µM) | relative viability (Cediranib + Crizotinib; first compound 0.04 µM) | relative viability (Cediranib + Crizotinib; first compound 0.1265 µM) | relative viability (Cediranib + Crizotinib; first compound 0.4 µM) | relative viability (Cediranib + Crizotinib; first compound 1.265 µM) | relative viability (Cediranib + Crizotinib; first compound 4 µM) | relative viability ([1]; first compound 0.001 µM) | relative viability ([1]; first compound 0.003162 µM) | relative viability ([1]; first compound 0.01 µM) | relative viability ([1]; first compound 0.03162 µM) | relative viability ([1]; first compound 0.1 µM)
1 | NCI-H1650 | 0.95 | 0.806 | 0.836 | 0.677 | 0.538 | 0.61 | 0.234 | 0.494 | 0.468 | 0.383 | 1.29 | 1.05 | 0.794 | 0.953 | 0.879 | – | – | – | – | –
2 | NCI-H358 | 0.653 | 0.556 | 0.459 | 0.26 | 0.124 | 0.323 | 0.462 | 0.314 | 0.271 | 0.404 | 0.546 | 0.641 | 0.637 | 0.567 | 0.428 | 0.779 | 0.707 | 0.629 | 0.273 | 0.19
3 | NCI-H1792 | 0.529 | 0.424 | 0.355 | 0.42 | 0.0661 | 0.305 | 0.33 | 0.3 | 0.312 | 0.291 | 1.03 | 1.03 | 0.915 | 0.979 | 0.882 | 0.602 | 0.501 | 0.642 | 0.569 | 0.523
4 | COR-L 105 | 0.695 | 0.607 | 0.698 | 0.664 | 0.625 | – | 0.434 | 0.332 | 0.376 | 0.403 | – | 0.842 | 0.832 | 0.716 | 0.695 | 1.13 | 0.932 | 0.764 | 0.748 | 0.753

From the supplement of paper PMC10307832
